Reference: patent US20230021275A1, “Application of Nanosulfur in Tomato Fusarium Wilt Control” (Jiangnan University, priority 2021, published 2023)

What was measured:
[1] = system: Fusarium oxysporum f sp. Lycopersici; test: Foliar application to tomatoes grown in infected soil (tomato fusarium wilt control); format: in vivo; details: foliar spraying 100 mg/L; for Fresh weight of above-ground part / Fresh weight of underground part / Incidence: 10 mL/plant, 6th and 8th week, 10th week
Source text: There were 5 levels of disease severity of tomatoes: 0: symptomless; 1: mildly stunted; 2: stunted; 3: leaves wilted and yellowed; and 4: dead. […] The highest disease severity level of tomatoes was Level 4. The total number of tomato plants in the treated group was 6. Test of biomass of above-ground part and underground part: Tomatoes were sampled destructively. The above-ground part and the underground part of the tomato were washed with ultrapure water three times. The above-ground part and the underground part of the tomato were dried up with filter paper. The above-ground part and the underground part were weighed using a balance. The obtained weights were respectively the biomass of the above-ground part and the underground part of the tomato. (1) Pathogenic bacteria (Fusarium oxysporum f sp. Lycopersici, the pathogen of tomato fusarium wilt) were added to dry soil at a concentration of 1×10^6 spores/g to obtain infected soil. (2) Tomato seeds were sowed in the infected soil. […] The cultivation was continued. In the meanwhile, tomato seeds were sowed in soil not infected with pathogenic bacteria, and cultivated normally with no sulfur solution applied, to obtain a healthy group. The cultivation of the tomatoes was continued until the 10th week. The tomatoes were examined for the disease severity. The tomatoes were sampled destructively. The fresh weights of the above-ground part and the underground part of the tomatoes were measured. The test results are as follows: (1) Pathogenic bacteria (F. oxysporum, the pathogen of tomato fusarium wilt) were added to dry soil at a concentration of 1×10^6 spores/g to obtain infected soil. (2) Tomato seeds were sowed in the infected soil. […] The cultivation was continued. In the meanwhile, tomato plants with no fertilizer applied were taken as the foliar disease group. When the tomatoes grew to the 10th week, the tomatoes were examined for the disease severity. The tomatoes were sampled destructively. The fresh weights of the above-ground part and the underground part of the tomatoes were measured.

F. oxysporum = test: Growth of pathogen colonies on PDA plates; format: cell-based; details: 100 mg/L
Source text: This may be because the nanosulfur could induce the systemic acquired resistance of plants and the control effect of the nanosulfur on the tomato fusarium wilt was better than the direct bactericidal effect thereof.

SMILES	Effect on fresh weights of above-ground and underground part (biomass) compared with the disease group [1]	Effect on the incidence of tomato fusarium wilt compared with the disease group [1]	Fresh weight of above-ground part [1]	Fresh weight of underground part [1] [b g]	Incidence [1]	Antibacterial effect relative to that of the 30-SNPs (F. oxysporum; 6 days) [times]	Reduction of the diameter of the pathogenic bacteria colonies (F. oxysporum; 6 days of exposure, compared with the foliar disease group) [%]
Cc1cc(O)no1 [Hymexazol, hymexazol]	significantly increased	significantly reduced	6.9 ± 0.9c g	1.8 ± 0.5	0.42 ± 0.08cd	3.05	34.5
O=S(=O)([O-])[O-].[Na+].[Na+] [Sodium sulfate, sodium sulfate]	no significant effects	–	5.5 ± 0.7 g·days	1.7 ± 0.2	0.64 ± 0.10a	–	–
